According to US10899709B2, “Novel-alkynyl-substituted 3-phenylpyrrolidine-2,4-diones and use thereof as herbicides” (BAYER CROPSCIENCE AKTIENGESELLSCHAFT, priority 2015, dated 2021):

Experiments:
Assay type in all cases: in vivo
[1] = system: Setaria viridis; experiment: Post-emergence herbicidal effect; conditions: visual assessment after about 3 weeks
Description: (§1) Seeds of monocotyledonous and dicotyledonous weed and crop plants are laid out in sandy loam in wood-fibre pots, covered with soil and cultivated in a greenhouse under good growth conditions. 2 to 3 weeks after sowing, the test plants are treated at the one-leaf stage. The compounds according to the invention, formulated in the form of wettable powders (WP) or as emulsion concentrates (EC), are then sprayed as aqueous suspension or emulsion at a water application rate of 600 to 800 l/ha (converted) with the addition of 0.2% of wetting agent onto the green parts of the plants. After the test plants have been left to stand in the greenhouse under optimal growth conditions for about 3 weeks, the action of the preparations is assessed visually in comparison to untreated controls (herbicidal action in percent (%): 100% activity=the plants have died, 0% activity=like control plants).

[2] = system: Lolium multiflorum; experiment: Post-emergence herbicidal effect; conditions: visual assessment after about 3 weeks
Description: as §1

[3] = system: Alopecurus myosuroides; experiment: Post-emergence herbicidal effect; conditions: for Post-emergence effectiveness ALOMY: visual assessment after about 3 weeks; for Comparison data for post-emergence effect ALOMY: 20 g a.i./ha
Description: as §1

[4] = system: Avena fatua; experiment: Post-emergence herbicidal effect; conditions: for Post-emergence effectiveness AVEFA: visual assessment after about 3 weeks; for Comparison data for post-emergence effect AVEFA: 20 g a.i./ha
Description: as §1

[5] = system: Echinochloa crus-galli; experiment: Post-emergence herbicidal effect; conditions: visual assessment after about 3 weeks
Description: as §1

[6] = system: Veronica persica; experiment: Pre-emergence herbicidal effect; conditions: 320 g/ha, visual score after 3 weeks
Description: (§2) Seeds of monocotyledonous and dicotyledonous weed plants and crop plants are laid out in wood-fibre pots in sandy loam and covered with soil. The compounds according to the invention formulated in the form of wettable powders (WP) or as emulsion concentrates (EC) are then applied as aqueous suspension or emulsion at a water application rate of 600 to 800 l/ha (converted) with the addition of 0.2% wetting agent to the surface of the covering soil. After the treatment, the pots are placed in a greenhouse and kept under good growth conditions for the trial plants. The damage to the test plants is scored visually after a test period of 3 weeks by comparison with untreated controls (herbicidal activity in percent (%): 100% activity=the plants have died, 0% activity=like control plants).

[7] = system: Cyperus esculentus; experiment: Pre-emergence herbicidal effect; conditions: for Pre-emergence effectiveness CYPES: visual score after 3 weeks
Description: as §2

[8] = system: Setaria viridis; experiment: Pre-emergence herbicidal effect; conditions: for Pre-emergence effectiveness SETVI: visual score after 3 weeks
Description: as §2

[9] = system: Lolium multiflorum; experiment: Pre-emergence herbicidal effect; conditions: visual score after 3 weeks
Description: as §2

[10] = system: Alopecurus myosuroides; experiment: Pre-emergence herbicidal effect; conditions: visual score after 3 weeks
Description: as §2

[11] = system: Avena fatua; experiment: Pre-emergence herbicidal effect; conditions: for Pre-emergence effectiveness AVEFA: visual score after 3 weeks
Description: as §2

[12] = system: Echinochloa crus-galli; experiment: Pre-emergence herbicidal effect; conditions: visual score after 3 weeks
Description: as §2

[13] = system: PHBPU; experiment: Post-emergence herbicidal effect; conditions: 20 g a.i./ha
Description: as §1

[14] = system: Amaranthus retroflexus; experiment: Pre-emergence herbicidal effect; conditions: 320 g/ha, visual score after 3 weeks
Description: as §2

[15] = system: Viola tricolor; experiment: Pre-emergence herbicidal effect; conditions: 320 g/ha, visual score after 3 weeks
Description: as §2

CC#Cc1cc(C)c(C2=C(O)C3(CCC(CCOC)CC3)NC2=O)c(CC)c1 (stereo not drawn) [Example I-2]
100%: Post-emergence effectiveness SETVI ([1]; 20 g/ha) | Post-emergence effectiveness SETVI ([1]; 80 g/ha) | Post-emergence effectiveness LOLMU ([2]; 80 g/ha) | Post-emergence effectiveness ALOMY ([3]; 80 g/ha) | Post-emergence effectiveness AVEFA ([4]; 80 g/ha) | Post-emergence effectiveness ECHCG ([5]; 20 g/ha) | Post-emergence effectiveness ECHCG ([5]; 80 g/ha) | Pre-emergence effectiveness VERPE [6] | Pre-emergence effectiveness CYPES ([7]; 320 g/ha) | Pre-emergence effectiveness SETVI ([8]; 80 g/ha) | Pre-emergence effectiveness SETVI ([8]; 320 g/ha) | Pre-emergence effectiveness LOLMU ([9]; 80 g/ha) | Pre-emergence effectiveness LOLMU ([9]; 320 g/ha) | Pre-emergence effectiveness ALOMY ([10]; 80 g/ha) | Pre-emergence effectiveness ALOMY ([10]; 320 g/ha) | Pre-emergence effectiveness AVEFA ([11]; 320 g/ha) | Pre-emergence effectiveness ECHCG ([12]; 80 g/ha) | Pre-emergence effectiveness ECHCG ([12]; 320 g/ha)
90%: Post-emergence effectiveness LOLMU ([2]; 20 g/ha) | Post-emergence effectiveness ALOMY ([3]; 20 g/ha) | Post-emergence effectiveness AVEFA ([4]; 20 g/ha)
80%: Pre-emergence effectiveness AVEFA ([11]; 80 g/ha)

CC#Cc1cc(C)c(C2=C(O)C3(CCC(COC)CC3)NC2=O)c(CC)c1 (stereo not drawn) [Example I-5]
100%: Post-emergence effectiveness SETVI ([1]; 80 g/ha) | Post-emergence effectiveness LOLMU ([2]; 80 g/ha) | Post-emergence effectiveness ALOMY ([3]; 80 g/ha) | Post-emergence effectiveness AVEFA ([4]; 80 g/ha) | Post-emergence effectiveness ECHCG ([5]; 20 g/ha) | Post-emergence effectiveness ECHCG ([5]; 80 g/ha) | Pre-emergence effectiveness CYPES ([7]; 320 g/ha) | Pre-emergence effectiveness SETVI ([8]; 80 g/ha) | Pre-emergence effectiveness SETVI ([8]; 320 g/ha) | Pre-emergence effectiveness LOLMU ([9]; 80 g/ha) | Pre-emergence effectiveness LOLMU ([9]; 320 g/ha) | Pre-emergence effectiveness ALOMY ([10]; 80 g/ha) | Pre-emergence effectiveness ALOMY ([10]; 320 g/ha) | Pre-emergence effectiveness AVEFA ([11]; 80 g/ha) | Pre-emergence effectiveness AVEFA ([11]; 320 g/ha) | Pre-emergence effectiveness ECHCG ([12]; 80 g/ha) | Pre-emergence effectiveness ECHCG ([12]; 320 g/ha)
90%: Post-emergence effectiveness SETVI ([1]; 20 g/ha) | Post-emergence effectiveness LOLMU ([2]; 20 g/ha) | Comparison data for post-emergence effect ALOMY [3] | Post-emergence effectiveness ALOMY ([3]; 20 g/ha) | Comparison data for post-emergence effect AVEFA [4] | Post-emergence effectiveness AVEFA ([4]; 20 g/ha)
30%: Comparison data for post-emergence effect PHBPU [13]
80%: Pre-emergence effectiveness VERPE [6]

COCC1CCC2(CC1)NC(=O)C(c1c(C)cc(C#CC3CC3)cc1C)=C2O (stereo not drawn) [Example I-8]
80%: Post-emergence effectiveness AVEFA ([4]; 80 g/ha) | Pre-emergence effectiveness SETVI ([8]; 80 g/ha)
90%: Post-emergence effectiveness LOLMU ([2]; 20 g/ha) | Post-emergence effectiveness LOLMU ([2]; 80 g/ha) | Post-emergence effectiveness ALOMY ([3]; 20 g/ha) | Pre-emergence effectiveness VERPE [6] | Pre-emergence effectiveness SETVI ([8]; 320 g/ha) | Pre-emergence effectiveness LOLMU ([9]; 80 g/ha) | Pre-emergence effectiveness ALOMY ([10]; 80 g/ha)
100%: Post-emergence effectiveness SETVI ([1]; 20 g/ha) | Post-emergence effectiveness SETVI ([1]; 80 g/ha) | Post-emergence effectiveness ALOMY ([3]; 80 g/ha) | Post-emergence effectiveness ECHCG ([5]; 20 g/ha) | Post-emergence effectiveness ECHCG ([5]; 80 g/ha) | Pre-emergence effectiveness LOLMU ([9]; 320 g/ha) | Pre-emergence effectiveness ALOMY ([10]; 320 g/ha) | Pre-emergence effectiveness ECHCG ([12]; 80 g/ha) | Pre-emergence effectiveness ECHCG ([12]; 320 g/ha)

CCc1cc(C#CC2CC2)cc(C)c1C1=C(O)C2(CCC(COC)C2)NC1=O (stereo not drawn) [Example I-11]
80%: Post-emergence effectiveness ALOMY ([3]; 20 g/ha) | Post-emergence effectiveness AVEFA ([4]; 20 g/ha) | Pre-emergence effectiveness VERPE [6] | Pre-emergence effectiveness AVEFA ([11]; 320 g/ha)
90%: Post-emergence effectiveness LOLMU ([2]; 20 g/ha) | Pre-emergence effectiveness SETVI ([8]; 80 g/ha)
100%: Post-emergence effectiveness SETVI ([1]; 20 g/ha) | Post-emergence effectiveness SETVI ([1]; 80 g/ha) | Post-emergence effectiveness LOLMU ([2]; 80 g/ha) | Post-emergence effectiveness ALOMY ([3]; 80 g/ha) | Post-emergence effectiveness AVEFA ([4]; 80 g/ha) | Post-emergence effectiveness ECHCG ([5]; 20 g/ha) | Post-emergence effectiveness ECHCG ([5]; 80 g/ha) | Pre-emergence effectiveness CYPES ([7]; 320 g/ha) | Pre-emergence effectiveness SETVI ([8]; 320 g/ha) | Pre-emergence effectiveness LOLMU ([9]; 80 g/ha) | Pre-emergence effectiveness LOLMU ([9]; 320 g/ha) | Pre-emergence effectiveness ALOMY ([10]; 80 g/ha) | Pre-emergence effectiveness ALOMY ([10]; 320 g/ha) | Pre-emergence effectiveness ECHCG ([12]; 80 g/ha) | Pre-emergence effectiveness ECHCG ([12]; 320 g/ha)

CCOC(=O)OC1=C(c2c(C)cc(C#CC3CC3)cc2CC)C(=O)N[C@]12CC[C@H](COC)C2 [Example Ia-1]
80%: Post-emergence effectiveness ALOMY ([3]; 80 g/ha) | Pre-emergence effectiveness AVEFA ([11]; 80 g/ha)
90%: Post-emergence effectiveness SETVI ([1]; 80 g/ha) | Post-emergence effectiveness ECHCG ([5]; 20 g/ha) | Pre-emergence effectiveness VERPE [6] | Pre-emergence effectiveness ALOMY ([10]; 80 g/ha) | Pre-emergence effectiveness AVEFA ([11]; 320 g/ha)
100%: Post-emergence effectiveness ECHCG ([5]; 80 g/ha) | Pre-emergence effectiveness SETVI ([8]; 80 g/ha) | Pre-emergence effectiveness SETVI ([8]; 320 g/ha) | Pre-emergence effectiveness LOLMU ([9]; 80 g/ha) | Pre-emergence effectiveness LOLMU ([9]; 320 g/ha) | Pre-emergence effectiveness ALOMY ([10]; 320 g/ha) | Pre-emergence effectiveness ECHCG ([12]; 80 g/ha) | Pre-emergence effectiveness ECHCG ([12]; 320 g/ha)

CC#Cc1cc(CC)c(C2=C(OC(=O)C(C)C)C3(CCC(CCOC)CC3)NC2=O)c(CC)c1 (stereo not drawn) [Example Ia-5]
80%: Pre-emergence effectiveness AVEFA ([11]; 80 g/ha)
100%: Pre-emergence effectiveness VERPE [6] | Pre-emergence effectiveness AMARE [14] | Pre-emergence effectiveness CYPES ([7]; 80 g/ha) | Pre-emergence effectiveness CYPES ([7]; 320 g/ha) | Pre-emergence effectiveness SETVI ([8]; 80 g/ha) | Pre-emergence effectiveness SETVI ([8]; 320 g/ha) | Pre-emergence effectiveness LOLMU ([9]; 80 g/ha) | Pre-emergence effectiveness LOLMU ([9]; 320 g/ha) | Pre-emergence effectiveness ALOMY ([10]; 80 g/ha) | Pre-emergence effectiveness ALOMY ([10]; 320 g/ha) | Pre-emergence effectiveness AVEFA ([11]; 320 g/ha) | Pre-emergence effectiveness ECHCG ([12]; 80 g/ha) | Pre-emergence effectiveness ECHCG ([12]; 320 g/ha)

CC#Cc1cc(C)c(C2=C(OC(=O)C(C)C)C3(CCC(CCOC)CC3)NC2=O)c(CC)c1 (stereo not drawn) [Ia-4]
90%: Pre-emergence effectiveness VERPE [6] | Pre-emergence effectiveness LOLMU ([9]; 320 g/ha)
80%: Pre-emergence effectiveness ALOMY ([10]; 320 g/ha)
100%: Pre-emergence effectiveness SETVI ([8]; 80 g/ha) | Pre-emergence effectiveness SETVI ([8]; 320 g/ha) | Pre-emergence effectiveness VIOTR [15] | Pre-emergence effectiveness ECHCG ([12]; 80 g/ha) | Pre-emergence effectiveness ECHCG ([12]; 320 g/ha)

CC#Cc1cc(C)c(C2=C(OC(=O)OCC)C3(CCC(OC)CC3)NC2=O)c(CC)c1 (stereo not drawn) [WO 2015/040114, reference compound]
80%: Comparison data for post-emergence effect ALOMY [3] | Comparison data for pre-emergence effectiveness SETVI ([8]; 20 g a.i./ha)
50%: Comparison data for pre-emergence effectiveness AVEFA ([11]; 20 g a.i./ha)
0%: Comparison data for post-emergence effect PHBPU [13] | Comparison data for pre-emergence effectiveness CYPES ([7]; 20 g a.i./ha)
70%: Comparison data for post-emergence effect AVEFA [4]
